Reference: publication PMC12067145 (ACS Medicinal Chemistry Letters, 2025)

Tests used:
[1] = Liver microsome intrinsic clearance (rat); assay type: in vitro ADME; settings: pH 7.4; rat liver microsomes; read-out: LMS CLINT rat
Experimental: After a 5 min preincubation, the reaction was initiated by the addition of NADPH (1 mM). At selected time intervals between 0 ~ 60 min (e.g. 0, 3, 7, 15, 25, 45 and/or 60 min), aliquots were taken and subsequently placed into a 96-well plate containing cold acetonitrile with an internal standard (50 ng/mL carbamazepine). Plates were then centrifuged at 3000 rcf (4 °C) for 10 min, and the supernatant was transferred to a separate 96-well plate and diluted 1:1 with water for LC/MS/MS analysis. The in vitro half-life (T 1/2, min, Eq. 1), intrinsic clearance (CLint, mL/min/kg, Eq. 2), and subsequent predicted hepatic clearance (CLhep, mL/min/kg, Eq. 3) were determined employing the following equations: […]
where k represents the slope from linear regression analysis of the natural log percent remaining of a test compound as a function of incubation time […]
(2) CLint = in vitroT1/2 x mg microsomes x gram liver x kg body wt ascale-up factors: of 20 (human) or 45 (rat) or 87.5 (mouse) […]
where Qh (hepatic blood flow, mL/min/kg) is 21 (human) or 70 (rat) or 90 (mouse).
LC/MS/MS Bioanalysis of Samples from Plasma Protein Binding and Intrinsic Clearance […]
Samples were analyzed on a Thermo Electron TSQ Quantum Ultra triple quad mass spectrometer (San Jose, CA) via electrospray ionization (ESI) with two Themo Electron Accella pumps (San Jose, CA), and a Leap Technologies CTC PAL autosampler (Carrboro, NC). Analytes were separated by gradient elution on a dual column system with two Thermo Hypersil Gold (2.1 x 30 mm, 1.9 µm) columns (San Jose, CA) thermostated at 40 °C. HPLC mobile phase A was 0.1% formic acid in water and mobile phase B was 0.1% formic acid in acetonitrile. The gradient started […]
for 0.2 min; returned to 10% B in 0.1 min. The total run time was 1.3 min and the HPLC flow rate was 0.8 mL/min. While pump 1 ran the gradient method, pump 2 equilibrated the alternate column isocratically at 10% B. Compound optimization, data collection, and processing were performed using Thermo Electron's QuickQuan software (v2.3) and Xcalibur (v2.0.7 SP1). […]

[2] = Rat IV:PBL PK cassette study / in vivo rat clearance; settings: male, Sprague-Dawley, 0.2 mg/kg
[3] = test system: male CD-1 mice; assay: MK-801 challenged novel object recognition (NOR) task; assay type: in vivo, mouse; settings: IP, 3.5 h prior to MK-801 (0.2 mg/kg IP)
Experimental: A plastic chamber (W 345×L 400×H 180 mm) was used for the novel object recognition test. The light intensity in the test room was maintained at approximately 20 lux. The novel object recognition test was conducted over two days. On the first day, mice were placed in the chamber without any objects and allowed to explore freely for 10 minutes to acclimate to the experimental environment. […] Thirty minutes after the MK-801 challenge, the acquisition trial

[4] = target: KCNQ1 (Homo sapiens, UniProt P51787); assay: Cardiac ion channel MPC selectivity panel; assay type: cell-based
[5] = target: T1, Adenosine A3 (Homo sapiens, UniProt P0DMS8); assay: Eurofins lead profiling screen (radioligand binding)
T1 construct: Eurofins
T1 sequence (P0DMS8 whole entry): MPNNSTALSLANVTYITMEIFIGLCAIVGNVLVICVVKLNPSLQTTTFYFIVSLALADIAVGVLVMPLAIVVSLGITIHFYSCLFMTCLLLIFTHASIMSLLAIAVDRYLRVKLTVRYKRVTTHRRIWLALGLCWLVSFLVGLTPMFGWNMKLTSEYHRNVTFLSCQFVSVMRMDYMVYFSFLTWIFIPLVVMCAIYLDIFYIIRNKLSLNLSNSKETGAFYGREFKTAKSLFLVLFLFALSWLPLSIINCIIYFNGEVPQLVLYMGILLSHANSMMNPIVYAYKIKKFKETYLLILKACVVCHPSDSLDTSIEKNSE

[6] = target: Sodium Channel, Site 2; assay: as above; design: species or system Rat
[7] = target: Adrenergic α1B (Rattus norvegicus, UniProt P15823); assay: as above
Chain of Adrenergic α1B (P15823 whole entry): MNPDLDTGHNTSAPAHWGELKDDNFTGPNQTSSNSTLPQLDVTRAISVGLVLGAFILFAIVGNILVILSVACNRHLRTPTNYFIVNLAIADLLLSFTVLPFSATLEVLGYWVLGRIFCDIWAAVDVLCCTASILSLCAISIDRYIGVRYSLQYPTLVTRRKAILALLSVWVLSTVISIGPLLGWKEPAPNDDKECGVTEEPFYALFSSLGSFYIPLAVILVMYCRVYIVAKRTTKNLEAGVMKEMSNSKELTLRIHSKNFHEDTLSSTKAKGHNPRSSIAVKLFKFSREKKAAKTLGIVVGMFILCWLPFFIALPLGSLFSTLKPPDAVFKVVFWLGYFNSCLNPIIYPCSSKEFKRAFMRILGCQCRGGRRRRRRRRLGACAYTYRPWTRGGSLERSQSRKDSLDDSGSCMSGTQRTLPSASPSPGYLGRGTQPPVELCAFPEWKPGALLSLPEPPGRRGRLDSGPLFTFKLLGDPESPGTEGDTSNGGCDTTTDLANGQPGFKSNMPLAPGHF

[8] = target: Adrenergic α2A (Homo sapiens, UniProt P08913); assay: as above
Chain of Adrenergic α2A (P08913 whole entry): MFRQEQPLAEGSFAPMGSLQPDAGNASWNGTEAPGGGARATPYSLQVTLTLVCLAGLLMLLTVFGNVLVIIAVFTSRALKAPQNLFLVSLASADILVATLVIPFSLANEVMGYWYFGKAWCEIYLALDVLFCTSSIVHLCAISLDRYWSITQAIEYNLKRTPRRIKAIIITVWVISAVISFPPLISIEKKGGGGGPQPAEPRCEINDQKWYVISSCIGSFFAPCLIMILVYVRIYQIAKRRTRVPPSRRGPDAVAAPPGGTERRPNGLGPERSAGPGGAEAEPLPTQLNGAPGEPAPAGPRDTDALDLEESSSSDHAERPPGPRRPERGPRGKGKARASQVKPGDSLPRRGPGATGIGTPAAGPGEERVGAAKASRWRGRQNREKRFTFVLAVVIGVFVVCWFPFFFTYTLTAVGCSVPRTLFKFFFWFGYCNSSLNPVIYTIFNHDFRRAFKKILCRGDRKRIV

[9] = target: Bradykinin B1 (Homo sapiens, UniProt P46663); assay: as above
[10] = target: Calcium Channel L-Type, Dihydropyridine (Rattus norvegicus, UniProt P22002); assay: as above
[11] = target: Dopamine D4.2 (Homo sapiens, UniProt P21917, DEL265-296); assay: as above
Chain of Dopamine D4.2 (P21917 with tags, fused parts or gaps DEL265-296): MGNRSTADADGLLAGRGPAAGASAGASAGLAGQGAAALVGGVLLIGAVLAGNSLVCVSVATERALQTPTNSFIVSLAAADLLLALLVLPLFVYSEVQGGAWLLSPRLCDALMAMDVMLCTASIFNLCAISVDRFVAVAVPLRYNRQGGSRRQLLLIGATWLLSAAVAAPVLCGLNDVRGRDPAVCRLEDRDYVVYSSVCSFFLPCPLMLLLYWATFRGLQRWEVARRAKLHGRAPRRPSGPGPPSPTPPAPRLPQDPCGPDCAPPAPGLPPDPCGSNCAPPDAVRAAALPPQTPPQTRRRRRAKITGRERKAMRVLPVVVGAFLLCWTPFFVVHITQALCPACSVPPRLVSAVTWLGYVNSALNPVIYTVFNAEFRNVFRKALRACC

[12] = target: Endothelin ETA (Homo sapiens, UniProt P25101); assay: as above
[13] = target: Epidermal Growth Factor (EGF) (Homo sapiens, UniProt P00533); assay: as above
Chain of Epidermal Growth Factor (EGF) (P00533 25-1210): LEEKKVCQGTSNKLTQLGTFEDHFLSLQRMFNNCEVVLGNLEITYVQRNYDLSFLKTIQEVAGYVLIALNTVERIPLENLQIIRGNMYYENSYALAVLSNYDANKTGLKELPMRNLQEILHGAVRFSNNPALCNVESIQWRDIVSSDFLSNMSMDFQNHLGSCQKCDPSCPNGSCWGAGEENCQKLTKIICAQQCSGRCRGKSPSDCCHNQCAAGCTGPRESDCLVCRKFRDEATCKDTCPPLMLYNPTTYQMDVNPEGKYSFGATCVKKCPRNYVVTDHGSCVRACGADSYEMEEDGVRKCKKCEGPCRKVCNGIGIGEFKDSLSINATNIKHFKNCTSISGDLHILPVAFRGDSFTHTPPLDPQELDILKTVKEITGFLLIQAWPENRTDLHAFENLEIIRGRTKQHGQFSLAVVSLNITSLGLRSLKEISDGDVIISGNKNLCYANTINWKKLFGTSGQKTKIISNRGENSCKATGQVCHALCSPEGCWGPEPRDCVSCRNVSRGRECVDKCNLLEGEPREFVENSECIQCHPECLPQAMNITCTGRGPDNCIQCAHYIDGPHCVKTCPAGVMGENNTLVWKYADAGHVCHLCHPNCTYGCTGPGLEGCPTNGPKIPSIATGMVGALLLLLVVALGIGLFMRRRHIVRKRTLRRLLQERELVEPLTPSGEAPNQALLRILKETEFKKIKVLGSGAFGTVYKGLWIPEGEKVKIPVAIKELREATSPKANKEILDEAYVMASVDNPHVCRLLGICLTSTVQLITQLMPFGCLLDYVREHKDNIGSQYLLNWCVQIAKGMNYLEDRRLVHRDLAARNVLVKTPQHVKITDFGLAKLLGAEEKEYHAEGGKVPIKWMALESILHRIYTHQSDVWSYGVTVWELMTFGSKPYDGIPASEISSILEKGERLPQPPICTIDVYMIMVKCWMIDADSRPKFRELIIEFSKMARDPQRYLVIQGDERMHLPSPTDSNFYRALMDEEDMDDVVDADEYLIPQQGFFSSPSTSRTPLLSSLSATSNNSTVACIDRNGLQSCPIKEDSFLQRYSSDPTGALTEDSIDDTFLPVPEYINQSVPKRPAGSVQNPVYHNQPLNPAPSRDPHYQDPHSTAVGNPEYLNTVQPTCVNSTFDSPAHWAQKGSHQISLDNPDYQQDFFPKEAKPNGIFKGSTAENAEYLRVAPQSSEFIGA

[14] = test system: GABAA, Muscimol, Central; assay: as above; design: species or system Rat
[15] = test system: Glutamate, NMDA, Agonism; assay: as above; design: species or system Rat
[16] = target: Neuropeptide Y Y1 (Homo sapiens, UniProt P25929); assay: as above
Chain of Neuropeptide Y Y1 (P25929 whole entry): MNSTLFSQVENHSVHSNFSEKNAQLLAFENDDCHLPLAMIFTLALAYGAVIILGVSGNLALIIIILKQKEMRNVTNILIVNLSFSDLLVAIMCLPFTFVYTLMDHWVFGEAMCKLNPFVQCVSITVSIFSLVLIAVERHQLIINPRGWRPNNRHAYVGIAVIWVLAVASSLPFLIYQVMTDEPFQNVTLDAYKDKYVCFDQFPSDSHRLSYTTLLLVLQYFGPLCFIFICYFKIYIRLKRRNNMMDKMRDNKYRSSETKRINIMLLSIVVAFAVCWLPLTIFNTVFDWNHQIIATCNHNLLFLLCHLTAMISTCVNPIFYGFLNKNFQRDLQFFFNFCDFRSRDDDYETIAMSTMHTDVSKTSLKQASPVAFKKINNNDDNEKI

[17] = test system: Nicotinic Acetylcholine; assay: as above; design: species or system Human
[18] = target: Potassium Channel [KATP] (Cricetus cricetus, UniProt Q09427); assay: as above; design: species or system Hamster
Chain of Potassium Channel [KATP] (Q09427 whole entry): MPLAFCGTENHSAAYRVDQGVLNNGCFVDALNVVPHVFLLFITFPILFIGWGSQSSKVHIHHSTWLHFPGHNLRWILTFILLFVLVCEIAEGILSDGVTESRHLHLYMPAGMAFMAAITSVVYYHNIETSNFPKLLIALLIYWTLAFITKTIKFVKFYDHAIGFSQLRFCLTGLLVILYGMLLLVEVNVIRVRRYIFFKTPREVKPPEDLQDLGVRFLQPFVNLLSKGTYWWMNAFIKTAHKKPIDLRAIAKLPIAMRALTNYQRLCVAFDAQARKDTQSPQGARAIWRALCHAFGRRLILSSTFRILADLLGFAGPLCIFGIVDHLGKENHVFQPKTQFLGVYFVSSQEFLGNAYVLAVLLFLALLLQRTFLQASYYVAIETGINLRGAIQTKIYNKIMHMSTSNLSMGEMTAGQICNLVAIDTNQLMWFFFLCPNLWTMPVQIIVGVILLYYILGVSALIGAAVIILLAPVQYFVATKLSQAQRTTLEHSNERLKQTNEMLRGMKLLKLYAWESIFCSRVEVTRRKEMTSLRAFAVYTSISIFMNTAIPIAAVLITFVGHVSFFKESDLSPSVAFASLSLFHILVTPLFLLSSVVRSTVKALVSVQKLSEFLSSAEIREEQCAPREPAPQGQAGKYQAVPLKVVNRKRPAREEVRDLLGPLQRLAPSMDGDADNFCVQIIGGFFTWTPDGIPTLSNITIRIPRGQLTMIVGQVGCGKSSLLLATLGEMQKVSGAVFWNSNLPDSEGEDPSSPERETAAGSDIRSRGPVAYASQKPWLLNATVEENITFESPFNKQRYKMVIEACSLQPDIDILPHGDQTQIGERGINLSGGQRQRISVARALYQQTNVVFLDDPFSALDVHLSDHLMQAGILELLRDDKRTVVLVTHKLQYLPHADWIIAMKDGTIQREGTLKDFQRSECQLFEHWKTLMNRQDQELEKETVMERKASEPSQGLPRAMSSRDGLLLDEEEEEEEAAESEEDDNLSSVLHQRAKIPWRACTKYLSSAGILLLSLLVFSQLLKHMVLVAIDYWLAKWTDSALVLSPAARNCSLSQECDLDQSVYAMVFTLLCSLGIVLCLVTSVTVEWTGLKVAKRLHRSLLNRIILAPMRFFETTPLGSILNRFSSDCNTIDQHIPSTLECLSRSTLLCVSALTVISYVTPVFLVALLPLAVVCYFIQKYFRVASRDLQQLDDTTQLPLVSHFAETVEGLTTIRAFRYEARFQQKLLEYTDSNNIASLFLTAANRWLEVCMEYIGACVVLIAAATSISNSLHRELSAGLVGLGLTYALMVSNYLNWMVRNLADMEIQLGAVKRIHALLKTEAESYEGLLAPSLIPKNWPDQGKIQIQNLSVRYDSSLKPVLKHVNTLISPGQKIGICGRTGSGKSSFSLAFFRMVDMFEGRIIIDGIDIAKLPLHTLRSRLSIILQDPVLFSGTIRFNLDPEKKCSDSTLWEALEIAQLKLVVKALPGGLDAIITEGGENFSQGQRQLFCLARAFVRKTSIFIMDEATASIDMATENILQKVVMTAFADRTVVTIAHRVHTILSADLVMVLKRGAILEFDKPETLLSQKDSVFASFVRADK

[19] = test system: Purinergic P2X; assay: as above; design: species or system Rat
[20] = test system: Rolipram; assay: as above; design: species or system Rat
[21] = target: Transporter, Norepinephrine (NET) (Homo sapiens, UniProt P23975); assay: as above

SMILES: Cc1cc(C#Cc2ccc(F)cc2)cnc1NC(=O)c1cc(NC(=O)OC(C)(C)C)ccc1Cl [Compound 14c]
- CLint scaled at 1 µM [1]: 29 mL/min/kg
- clearance at 24 h ([2]; iv, in vivo rat plasma clearance, read-out: rat CLp): 21.2 mL/min/kg
- half-life at 24 h ([2]; plasma, rat IV:PBL PK cassette): 6.78 h
- Vd at 24 h ([2]; plasma, rat IV:PBL PK cassette, read-out: volume of distribution): 6.7 L/kg
- minimum effective dose (MED) [3]: 10 mg/kg
- % at 10 μM, KCNQ1 [4]: < 50%
- Ki [5]: 480 nM
- Ki [6]: 650 nM

SMILES: O=C(NCc1ccc(OC(F)(F)F)cc1F)c1ccc2ncnn2c1 [ONO-2920632]
- inhibition at 10 µM [5]: 84%
- inhibition at 10 µM [7]: 11%
- inhibition at 10 µM [8]: 36%
- inhibition at 10 µM [9]: 27%
- inhibition at 10 µM [10]: 76%
- inhibition at 10 µM [11]: 5%
- inhibition at 10 µM [12]: -11%
- inhibition at 10 µM [13]: -2%
- % Inhibition at 10 µM [14]: 2%
- % Inhibition at 10 µM [15]: 2%
- inhibition at 10 µM [16]: 15%
- % Inhibition at 10 µM [17]: -10%
- inhibition at 10 µM [18]: -6%
- % Inhibition at 10 µM [19]: 1%
- % Inhibition at 10 µM [20]: 5%
- % Inhibition at 10 µM ([6]; 10 µM): 84%
- inhibition at 10 µM [21]: 29%
